Tests used:
WEHI-3B cell lysosomes = test: Transmission electron microscopy of lysosomes of CBE treated WEHI-3B cells; type: cell-based, murine; conditions: transmission electron microscopy (FIG. 6)
[1] = test system: N-linked oligosaccharide processing of gp120 in CHO cells (α-glucosidases I and II); test: Endo H sensitivity of gp120 expressed in CHO cells (N-linked oligosaccharide processing); type: cell-based, Chinese hamster
Method: The arrows indicate the molecular weight of the untreated gp120 (120 kDa) and post endo H digestion (60 kDa). An additional band of low molecular weight (approximately 60 kDa) was present in some lanes and is a non-specific protein precipitated by the solid phase matrix.
The culture of CHO cells expressing soluble recombinant gp120 (from Dr. P. Stevens, MRC AIDS Directed Programme Reagent Project) and the radiolabelling of these cells was carried out by conventional procedure as described by Karlsson et al., J. Biol. Chem. 268, 570-576 (1993). Briefly, CHO cells were harvested mechanically, washed three times with phosphate buffered saline, 0.1M pH 7.2 (PBS) and resuspended in methionine- and cysteine-free RPMI-1640 medium (ICN-Flow Laboratories, High Wycombe, Bucks, U.K.) supplemented with 1% dialysed FCS. Cells (10^7 /ml) were preincubated in the presence or absence of NB-DNJ or NB-DGJ for 1 hr prior to the addition of 100 μCi/ml Tran^35 S-label (ICN-Flow) for 4 hr. The supernatants were collected and concentrated tenfold using a 30 kDa cut-off membrane (Amicon, Danvers, Mass., U.S.A.).
Immunoprecipitations were performed by conventional procedure as described by Karlsson supra. Supernatants were incubated with the mAb ABT 1001 monoclonal antibody (American Biotechnologies Inc., Cambridge, Mass., U.S.A.) at 0.5 μg/100 μl of supernatant for 30 min. at room temperature followed by sheep anti-mouse IgG1-coated magnetic beads (Dynal Ltd., Wirral, Merseyside, U.K., 1.2×10^7 beads per sample) for 1 hr. at 4° C. The beads were washed three times with 2% TRITON® X-100 in PBS and three times with PBS. Gp120 was eluted in […] reducing SDS-PAGE sample buffer with heating (95° C., 5 min.). Each sample was divided into two equal aliquots and 25 μl of dH2 O added to give a final volume of 50 μl. To one half of each sample 2 μl of endoglycosidase H (endo H, 1 unit/ml, Boehringer Mannheim Ltd., Lewes, Sussex, U.K.) was added and the other half left untreated. […]

[2] = test system: oligosaccharide biosynthesis in BW5147 cells; test: Glycopeptide analysis by Con A-SEPHAROSE chromatography, BW5147 cells; type: cell-based, murine
[3] = target: UDP-glucose:N-acylsphingosine glucosyltransferase; test: Inhibition of UDP-glucose:N-acylsphingosine glucosyltransferase; type: biochemical, rat brain, mouse macrophage (WEHI-3B); conditions: rat brain or mouse macrophage homogenates; read-out: IC50
HL-60 cells = test: Cytotoxicity in the dose range tested; type: cell-based, human

Structure (SMILES): CCCCN1C[C@H](O)[C@@H](O)[C@@H](O)[C@H]1CO [NB-DGJ, N-butyl deoxygalactonojirimycin]
- glycolipid accumulation in lysosomes (WEHI-3B cell lysosomes): prevented the glycolipid accumulation
- inhibition of α-glucosidases I and II suggested by gp120 endo H sensitivity ([1]; 0.5 mM and 5 mM): not acting as an inhibitor of α-glucosidases I and II
- endo H sensitivity of gp120 N-linked glycans ([1]; 0.5 mM or 5 mM (FIG. 7)): partially sensitive to endo H and was indistinguishable from the untreated gp120 molecules
- Total 3H-mannose recovered [2]: 706873 cpm
- Bi-antennary ([2]; percentage of radiolabelled glycopeptides eluted with 10 mM methylglucoside): 7.2%
- Oligo-mannose & hybrid ([2]; percentage of radiolabelled glycopeptides eluted with 500 mM methylmannoside): 52.4%
- Tetra- & Tri-antennary ([2]; percentage of radiolabelled glycopeptides non-bound): 40.4%
- IC50 [3]: 60.9 µM
- cytotoxicity (HL-60 cells): non-cytotoxic

Reference: patent publication US6291657A (priority 1993, dated 2001)
